The structures appear in SMILES notation.

In one test the target is 5-hydroxytryptamine receptor 2A (Bos taurus, UniProt Q75Z89). Briefly: Affinity towards 5-hydroxytryptamine 2A receptor in membranes from bovine frontal cortex using [3H]ketanserin. The class given is tissue-based.
5-hydroxytryptamine receptor 2A, sequence (Q75Z89 whole entry): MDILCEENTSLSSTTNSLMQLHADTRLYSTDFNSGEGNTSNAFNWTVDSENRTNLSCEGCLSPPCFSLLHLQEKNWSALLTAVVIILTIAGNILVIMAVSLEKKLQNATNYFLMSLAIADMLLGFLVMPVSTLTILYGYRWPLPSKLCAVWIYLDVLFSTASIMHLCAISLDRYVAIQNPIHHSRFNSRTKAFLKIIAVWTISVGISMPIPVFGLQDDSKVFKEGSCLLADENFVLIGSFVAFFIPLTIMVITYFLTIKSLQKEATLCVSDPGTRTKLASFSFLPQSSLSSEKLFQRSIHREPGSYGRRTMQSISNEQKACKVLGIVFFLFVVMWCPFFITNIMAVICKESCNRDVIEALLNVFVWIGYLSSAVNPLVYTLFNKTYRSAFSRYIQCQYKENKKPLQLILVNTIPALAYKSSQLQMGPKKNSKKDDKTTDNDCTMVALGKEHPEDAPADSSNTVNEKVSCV
One may read the IC50 as the concentration needed to halve the response being measured. A low value points to greater potency in that assay. The compound `Cn1c(=O)sc2cc(CCN3CCN(c4ccccc4O)CC3)ccc21` displayed an IC50 of 1100 nM. That is a single-digit micromolar value.

As for `COc1ccccc1N1CCN(CCCc2ccc3nc(O)sc3c2)CC1`, half-maximal inhibition (IC50) was put at 290 nM.

In the case of `COc1ccccc1N1CCN(CCCCc2ccc3c(c2)sc(=O)n3C)CC1`, the concentration for half-maximal inhibition (IC50) was 1000 nM.

`O=c1[nH]c2ccc(CCCCN3CCN(c4cccc(C(F)(F)F)c4)CC3)cc2s1`: the half-maximal inhibitory concentration (IC50) was 570 nM.

As to `COc1ccccc1N1CCN(CCCc2ccc3c(c2)sc(=O)n3C)CC1`, the IC50 was determined as 910 nM.

For `CN1C(=O)COc2cc(CCN3CCN(c4cccc(C(F)(F)F)c4)CC3)ccc21`, inhibition was half-maximal at 620 nM (IC50).

`Oc1nc2ccc(CCN3CCN(c4ccccc4)CC3)cc2s1` had an IC50 of 40 nM.

Consider `Cn1c(=O)sc2cc(CCCCN3CCN(c4cccc(C(F)(F)F)c4)CC3)ccc21`, for which the IC50 was determined as 400 nM.

In the case of `O=c1[nH]c2ccc(CCN3CCN(c4cccc(C(F)(F)F)c4)CC3)cc2s1`, it took 200 nM to reach half-maximal inhibition (IC50).

The compound `Cn1c(=O)sc2cc(CCN3CCN(c4ccc(F)cc4)CC3)ccc21` came in with a concentration for half-maximal inhibition (IC50) of 200 nM.

Another test concerns Mus musculus. Kind of test: Compound was evaluated in vivo antagonism of mescaline-induced scratching(% vs controls), dose(mg/Kg ip)=4. The class given is functional.
Take `COc1ccccc1N1CCN(CCCc2ccc3nc(O)sc3c2)CC1`: the Activity was determined as 96.

In a further test the target is 5-hydroxytryptamine receptor 1B (Rattus norvegicus, UniProt P28564). Briefly: Affinity towards 5-hydroxytryptamine 1B receptor in membranes from rat frontal cortex using [3H]5-HT. It is filed as tissue-based.
5-hydroxytryptamine receptor 1B, sequence (P28564 whole entry): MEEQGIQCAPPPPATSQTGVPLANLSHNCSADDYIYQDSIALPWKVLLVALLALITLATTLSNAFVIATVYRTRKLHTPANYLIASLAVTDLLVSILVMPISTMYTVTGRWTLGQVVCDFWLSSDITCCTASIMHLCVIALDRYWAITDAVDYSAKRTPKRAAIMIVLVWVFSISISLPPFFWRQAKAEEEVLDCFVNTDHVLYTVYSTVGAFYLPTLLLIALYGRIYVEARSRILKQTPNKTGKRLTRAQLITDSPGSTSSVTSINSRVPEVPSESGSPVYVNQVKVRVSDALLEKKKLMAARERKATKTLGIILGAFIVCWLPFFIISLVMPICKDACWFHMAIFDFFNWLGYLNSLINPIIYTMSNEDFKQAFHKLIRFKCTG
In the case of `Cn1c(=O)sc2cc(CCN3CCN(c4ccccc4O)CC3)ccc21`, inhibition was half-maximal at 31 nM (IC50).

In the case of `COc1ccccc1N1CCN(CCCc2ccc3nc(O)sc3c2)CC1`, the IC50 worked out at 61 nM.

Take `COc1ccccc1N1CCN(CCCCc2ccc3c(c2)sc(=O)n3C)CC1`: half-maximal inhibition (IC50) was put at 300 nM. Compared with the last compound, the IC50 is about 4.9-fold higher.

With `O=c1[nH]c2ccc(CCCCN3CCN(c4cccc(C(F)(F)F)c4)CC3)cc2s1`, the IC50 was 400 nM.

As for `COc1ccccc1N1CCN(CCCc2ccc3c(c2)sc(=O)n3C)CC1`, the concentration for half-maximal inhibition (IC50) worked out at 360 nM. This IC50 and that of the compound before are within 1.5-fold of each other.

Take `CN1C(=O)COc2cc(CCN3CCN(c4cccc(C(F)(F)F)c4)CC3)ccc21`: the IC50 was 460 nM.

On to `Oc1nc2ccc(CCN3CCN(c4ccccc4)CC3)cc2s1`, for which the concentration for half-maximal inhibition (IC50) was 300 nM.

Consider `Cn1c(=O)sc2cc(CCCCN3CCN(c4cccc(C(F)(F)F)c4)CC3)ccc21`, for which the midpoint of inhibition, the IC50, lay at 1000 nM.

`O=c1[nH]c2ccc(CCN3CCN(c4cccc(C(F)(F)F)c4)CC3)cc2s1` showed an IC50 of 600 nM.

Compound `Cn1c(=O)sc2cc(CCN3CCN(c4ccc(F)cc4)CC3)ccc21` had an IC50 of 3000 nM. This IC50 lies about 5-fold higher than the previous one.

In another test the test system is Mus musculus. Kind of test: Compound was evaluated in vivo antagonism of mescaline-induced scratching(% vs controls), dose(mg/Kg ip)=2. The class given is functional.
Turning to `COc1ccccc1N1CCN(CCCc2ccc3c(c2)sc(=O)n3C)CC1`, the Activity stood at 73.

A further test deals with Mus musculus. Briefly: Tail suspension test in mice, dose(mg/Kg ip) = 4;duration of immobility(% vs controls). The class given is functional.
For `COc1ccccc1N1CCN(CCCc2ccc3nc(O)sc3c2)CC1`, the Duration of immobility was 99.

The compound `COc1ccccc1N1CCN(CCCCc2ccc3c(c2)sc(=O)n3C)CC1` showed a Duration of immobility of 36.

The target in a further test is T1, Alpha-1A adrenergic receptor (Bos taurus, UniProt P18130).
T1 sequence (P18130 whole entry): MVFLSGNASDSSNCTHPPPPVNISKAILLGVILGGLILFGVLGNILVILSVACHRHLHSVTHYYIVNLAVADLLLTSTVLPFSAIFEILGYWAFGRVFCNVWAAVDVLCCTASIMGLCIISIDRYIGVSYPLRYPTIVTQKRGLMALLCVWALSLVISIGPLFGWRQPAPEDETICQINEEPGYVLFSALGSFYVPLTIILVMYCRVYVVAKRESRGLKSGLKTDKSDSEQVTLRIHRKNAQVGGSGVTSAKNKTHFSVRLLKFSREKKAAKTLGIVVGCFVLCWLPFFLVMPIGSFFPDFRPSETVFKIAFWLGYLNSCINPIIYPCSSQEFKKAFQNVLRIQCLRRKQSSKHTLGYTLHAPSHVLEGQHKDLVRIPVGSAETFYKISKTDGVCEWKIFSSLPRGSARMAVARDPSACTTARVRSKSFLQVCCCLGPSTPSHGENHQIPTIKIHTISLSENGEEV
Briefly: Affinity towards Alpha-1A adrenergic receptor in membranes from bovine frontal cortex using [3H]prazosin. It is filed as tissue-based.
`COc1ccccc1N1CCN(CCCc2ccc3nc(O)sc3c2)CC1` registered an IC50 of 1 nM. In other words, the single-digit nanomolar range.

The compound `COc1ccccc1N1CCN(CCCCc2ccc3c(c2)sc(=O)n3C)CC1` had a half-inhibitory concentration (IC50) of 30 nM.

With `O=c1[nH]c2ccc(CCCCN3CCN(c4cccc(C(F)(F)F)c4)CC3)cc2s1`, 45 nM corresponded to half-maximal inhibition (IC50). Compared with the last compound, the IC50 is about 1.5-fold higher.

`COc1ccccc1N1CCN(CCCc2ccc3c(c2)sc(=O)n3C)CC1` came in with an IC50 of 6 nM.

Consider `CN1C(=O)COc2cc(CCN3CCN(c4cccc(C(F)(F)F)c4)CC3)ccc21`, for which the IC50 was 85 nM.

Consider `Cn1c(=O)sc2cc(CCCCN3CCN(c4cccc(C(F)(F)F)c4)CC3)ccc21`, for which the IC50 was determined as 200 nM.

The compound `O=c1[nH]c2ccc(CCN3CCN(c4cccc(C(F)(F)F)c4)CC3)cc2s1` gave a concentration for half-maximal inhibition (IC50) of 90 nM.

Regarding `Cn1c(=O)sc2cc(CCN3CCN(c4ccc(F)cc4)CC3)ccc21`, half-maximal inhibition (IC50) was put at 30 nM. Against the preceding compound, the IC50 is about 3-fold lower.

The values are drawn from ChEMBL document CHEMBL1131240, “Novel benzothiazolin-2-one and benzoxazin-3-one arylpiperazine derivatives with mixed 5HT1A/D2 affinity as potential atypical antipsychotics” (J Med Chem, 1998).
